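GI50 is the concentration that inhibits growth by half. TGI is the concentration that stops growth completely.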
Columns and labels:
Assay in all cases: NCI anticancer screen, dose series, 384-well format
SK-OV-3 ovarian = system: SK-OV-3 ovarian
HCT-15 colon = system: HCT-15 colon
MOLT-4 leukemia = system: MOLT-4 leukemia
NCI-H460 NSCLC = system: NCI-H460 NSCLC
MDA-MB-435 melanoma = system: MDA-MB-435 melanoma
UACC-257 melanoma = system: UACC-257 melanoma
PC-3 prostate = system: PC-3 prostate
SW-620 colon = system: SW-620 colon
OVCAR-4 ovarian = system: OVCAR-4 ovarian
LOX IMVI melanoma = system: LOX IMVI melanoma
NCI/ADR-RES ovarian = system: NCI/ADR-RES ovarian
HOP-62 NSCLC = system: HOP-62 NSCLC
IGROV1 ovarian = system: IGROV1 ovarian
OVCAR-8 ovarian = system: OVCAR-8 ovarian
CAKI-1 renal = system: CAKI-1 renal
EKVX NSCLC = system: EKVX NSCLC
ACHN renal = system: ACHN renal
HCT-116 colon = system: HCT-116 colon
KM12 colon = system: KM12 colon
RXF 393 renal = system: RXF 393 renal
NCI-H522 lung = system: NCI-H522 lung
SNB-75 CNS = system: SNB-75 CNS
HL-60(TB) leukemia = system: HL-60(TB) leukemia
OVCAR-3 ovarian = system: OVCAR-3 ovarian
SK-MEL-5 melanoma = system: SK-MEL-5 melanoma
SF-539 CNS = system: SF-539 CNS
COLO 205 colon = system: COLO 205 colon
MCF7 breast = system: MCF7 breast
NCI-H23 lung = system: NCI-H23 lung

Cc1cnc(NC(=O)Nc2cc(Br)c(C)cc2OC[C@@H]2CNCCO2)cn1
TGI (SK-OV-3 ovarian): 412 nM | GI50 (HCT-15 colon): 303 nM | TGI (HCT-15 colon): 1130 nM | GI50 (MOLT-4 leukemia): 131 nM | TGI (MOLT-4 leukemia): 262 nM | GI50 (NCI-H460 NSCLC): 290 nM | TGI (NCI-H460 NSCLC): 1430 nM | GI50 (MDA-MB-435 melanoma): 194 nM | TGI (MDA-MB-435 melanoma): 389 nM | GI50 (UACC-257 melanoma): 1420 nM | TGI (UACC-257 melanoma): 2730 nM | GI50 (PC-3 prostate): 1240 nM | TGI (PC-3 prostate): 14200 nM | GI50 (SW-620 colon): 693 nM | TGI (SW-620 colon): 2050 nM | GI50 (OVCAR-4 ovarian): 163 nM | TGI (OVCAR-4 ovarian): 1390 nM | GI50 (LOX IMVI melanoma): 1140 nM | TGI (LOX IMVI melanoma): 2390 nM | GI50 (NCI/ADR-RES ovarian): 254 nM | TGI (NCI/ADR-RES ovarian): 701 nM | GI50 (HOP-62 NSCLC): 143 nM | TGI (HOP-62 NSCLC): 512 nM | GI50 (IGROV1 ovarian): 354 nM | TGI (IGROV1 ovarian): 12200 nM | GI50 (OVCAR-8 ovarian): 153 nM | TGI (OVCAR-8 ovarian): 443 nM | GI50 (CAKI-1 renal): 469 nM | TGI (CAKI-1 renal): 2860 nM | GI50 (EKVX NSCLC): 436 nM | TGI (EKVX NSCLC): 11400 nM | GI50 (ACHN renal): 58.5 nM | TGI (ACHN renal): 254 nM | GI50 (HCT-116 colon): 977 nM | TGI (HCT-116 colon): 2300 nM | GI50 (KM12 colon): 72.3 nM | TGI (KM12 colon): 510 nM | GI50 (RXF 393 renal): 36.3 nM | TGI (RXF 393 renal): 165 nM | GI50 (NCI-H522 lung): 1940 nM | TGI (NCI-H522 lung): 5840 nM | GI50 (SNB-75 CNS): 369 nM | TGI (SNB-75 CNS): 2950 nM | GI50 (HL-60(TB) leukemia): 47.8 nM | TGI (HL-60(TB) leukemia): 174 nM | GI50 (OVCAR-3 ovarian): 188 nM | TGI (OVCAR-3 ovarian): 781 nM | GI50 (SK-MEL-5 melanoma): 329 nM | TGI (SK-MEL-5 melanoma): 1350 nM | GI50 (SF-539 CNS): 54.3 nM | TGI (SF-539 CNS): 201 nM | GI50 (COLO 205 colon): 1690 nM | TGI (COLO 205 colon): 4720 nM | GI50 (MCF7 breast): 56.3 nM | TGI (MCF7 breast): 1680 nM | GI50 (NCI-H23 lung): 56 nM | TGI (NCI-H23 lung): 244 nM
